Data on 20 compounds can be found in patent US7119115B2, “Indazole or indole derivatives, and use thereof in human medicine and more particularly in oncology” (Aventis Pharma S.A., priority 2001, dated 2006).

Data set [1] concerns HDMEC cells (Human Dermal Microvascular Endothelial Cells). The data set is described as follows: Detachment of endothelial cells in vitro (test for determining the inhibition of vascularization). The format is cell-based. To be noted: two hours of treatment, relative to control (untreated cells); for inhibition at 1 µM: Homo sapiens, Endothelial cell, 2 h. An excerpt:
A test for determining the detachment of the endothelial cells was developed in order to select the products with regard to their “in vitro” activity. This test for determining the detachment of endothelial cells is characterized in that the endothelial cells, inoculated into plates whose bottom is covered with a binder preferably chosen from gelatin, fibronectin and vitronectin, after culturing, are supplemented with a medium containing the test compound, and the cells are then labelled with a fluorescent substance, the cells which have become detached are removed by washing and the fluorescence of the remaining cells is counted in a fluorimeter.
This test consists in measuring the detachment of endothelial cells cultured on substrata based on a binder preferably chosen from fibronectin, vitronectin and gelatin. Preferably, a day after the inoculation of the cells in plates containing, for example, 96 wells, the culture medium is replaced with a medium containing the test compound in the absence of serum. The same preparation is prepared six times at three different concentrations ([…]) and the control six times without addition of antivascular product. After two hours of treatment with the test substance, the cells are labelled with calcein-AM (1.6 μg/ml) in culture medium supplemented with 0.1% BSA. The cells that have become detached are removed by washing with the culture medium containing 0.1% bovine serum albumin; 100 μl of medium are added to each well. The fluorescence of the remaining cells is counted in a fluorimeter. The data obtained are expressed relative to the control (untreated cells).
The evaluation of the detachment of the endothelial cells in vitro is determined in the following manner. HDMEC cells (Human Dermal Microvascular Endothelial Cells, Promocell, c-122102) are cultured in an ECGM-MV medium that contains 5% foetal calf serum, growth factors (EGF 10 ng/ml, hydrocortisone 1 μg/ml, 0.4% growth supplement with heparin) and antibiotics (amphotericin 50 ng/ml, gentamycin 50 μg/ml). For the detachment test, the HDMECs are inoculated at a rate of 5 000 cells in clear-bottomed 96-well plates (Costar) precoated with fibronectin (10 μg/ml), vitronectin (1 μg/ml) or gelatin. Twenty-four hours later, the culture medium is replaced with ECGM-MV 0.1% BSA medium containing the products indicated. The concentrations tested are 0.1–0.3 and 1 μM for each product. After two hours of treatment, the cells are labelled for one hour with calcein (1.6 μg/ml, Molecular Probes) in ECGM-MV 0.1% BSA medium. The detached cells are then removed by washing with ECGM-MV 0.1% BSA medium; 100 μl of medium is added to each well. The fluorescence of the cells that remain attached to the substratum of the well is counted using a fluorimeter, Spectrafluor Plus (Tecan excitation 485 nm, and emission 535 nm). The data are the mean of six different samples and are expressed as the percentage of the control (untreated cells).
A cell detachment effect of greater than or equal to 15% is considered as significant.

The next data set has as its target T1, Tubulin (Sus scrofa, UniProt P02550+P02554).
T1 construct: Tubulin is purified from pig brain according to published methods; from tissue; host or cells: pig brain
The experiment in a line: Evaluation of the inhibition of tubulin polymerization (turbidimetry at 350 nm). The format is biochemical. Particulars: concentration that inhibits the rate of polymerization by 50%; pig brain tubulin 10 μM. The method, then: Briefly, the brains are ground and centrifuged in an extraction buffer. The tubulin contained in the supernatant of the extract undergoes two successive cycles of polymerization at 37° C. and depolymerization at 4° C., before being separated from the MAPs (Microtubule Associated Proteins) by chromatography on a phosphocellulose P11 column (Whatman). […] It is stored in a buffer known as RB/2 30% glycerol, the composition of which is 50 mM MES-NaOH [2-(N-morpholino)ethanesulphonic acid], pH 6.8; 0.25 mM MgCl2; 0.5 mM EGTA; 30% glycerol (v/v), 0.2 mM GTP (guanosine-5′-triphosphate).
The polymerization of tubulin to microtubules is monitored by turbidimetry as follows: the tubulin is adjusted to a concentration of 10 μM (1 mg/ml) in RB/2 30% glycerol buffer to which 1 mM GTP and 6 mM MgCl2 are added. […] The increase in the turbidity of the solution is monitored at 350 nm.
The products are dissolved at 10 mM in DMSO and added at variable concentrations (0.5 to 10 μM) to the tubulin solution before polymerization.

T1 sequence (P02550 whole entry): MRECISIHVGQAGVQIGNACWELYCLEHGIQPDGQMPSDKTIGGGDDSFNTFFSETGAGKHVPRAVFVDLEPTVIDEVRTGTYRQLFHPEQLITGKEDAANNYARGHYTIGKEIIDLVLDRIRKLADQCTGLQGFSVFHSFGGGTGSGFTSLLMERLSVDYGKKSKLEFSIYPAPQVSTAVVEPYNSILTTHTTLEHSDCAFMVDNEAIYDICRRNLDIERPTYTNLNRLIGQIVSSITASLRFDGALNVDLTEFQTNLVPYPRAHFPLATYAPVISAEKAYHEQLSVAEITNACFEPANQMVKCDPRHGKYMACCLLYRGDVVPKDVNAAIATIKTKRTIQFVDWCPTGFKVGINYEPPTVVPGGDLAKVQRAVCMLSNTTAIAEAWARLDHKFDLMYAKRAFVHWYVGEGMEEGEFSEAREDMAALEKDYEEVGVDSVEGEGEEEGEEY
T1 sequence (P02554 whole entry): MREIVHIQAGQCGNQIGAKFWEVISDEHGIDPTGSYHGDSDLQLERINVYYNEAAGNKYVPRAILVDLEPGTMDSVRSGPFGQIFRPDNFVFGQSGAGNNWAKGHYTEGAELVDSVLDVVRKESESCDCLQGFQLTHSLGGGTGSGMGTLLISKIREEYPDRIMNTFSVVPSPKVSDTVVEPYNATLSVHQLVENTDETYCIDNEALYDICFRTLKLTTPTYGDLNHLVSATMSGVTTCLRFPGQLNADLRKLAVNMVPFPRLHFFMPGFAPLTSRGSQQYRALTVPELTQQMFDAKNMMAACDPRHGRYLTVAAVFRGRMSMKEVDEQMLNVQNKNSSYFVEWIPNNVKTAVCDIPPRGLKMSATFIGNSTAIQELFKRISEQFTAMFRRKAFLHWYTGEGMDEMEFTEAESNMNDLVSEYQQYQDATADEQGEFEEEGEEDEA

Usually inhibition stands for the share of the control response that was lost under treatment. The term IC50 denotes the point on the concentration scale where inhibition reaches its midpoint. Lower therefore signals higher potency. The compound `O/N=C(\c1n[nH]c2c1C=CC(c1ccc(F)cc1)(c1ccc(F)cc1)C2)C1CC1` [Example 10-8A, cyclopropyl[6,6-bis(4-fluorophenyl)-6,7-dihydro-1H-indazol-3-yl]methanone oxime] showed an inhibition at 1 µM in data set [1] of 17%. 1500 nM corresponded to half-maximal inhibition against Tubulin (IC50).
For `O=C(c1n[nH]c2c1C=CC(c1ccccc1)(c1ccccc1)C2)C1CCC1` [Example 5-2, Cyclobutyl(6,6-diphenyl-6,7-dihydro-1H-indazol-3-yl)methanone] the same measures were 19% and 1100 nM.
With `O=C(Nc1n[nH]c2c1C=CC(c1ccccc1)(c1ccccc1)C2)c1ccccc1` [Example 7-4, N-[6,6-Diphenyl-6,7-dihydro-1H-indazol-3-yl]benzamide], in data set [1], the inhibition at 1 µM amounted to 18%. In addition, the 50% inhibitory concentration (IC50) against Tubulin came out at 6000 nM.
The matching figures for `CCOC(=O)c1c[nH]c2c1C=CC(c1ccccc1)(c1ccccc1)C2` [Example 12, Ethyl 6,6-diphenyl-6,7-dihydro-1H-indole-3-carboxylate]: 17% and 2000 nM.
`O=C(c1n[nH]c2c1C=CC(c1ccccc1)(c1ccccc1)C2)C1CC1` [Example 5-1, Cyclopropyl(6,6-diphenyl-6,7-dihydro-1H-indazol-3-yl)methanone] gave an inhibition at 1 µM in data set [1] of 29%. At Tubulin, this compound registered a 50% inhibitory concentration (IC50) of 800 nM.
Regarding `O=C(c1n[nH]c2c1C=CC(c1ccc(F)cc1)(c1ccc(F)cc1)C2)C1CC1` [Example 10-7, Cyclopropyl[6,6-bis(4-fluorophenyl)-6,7-dihydro-1H-indazol-3-yl]methanone], in data set [1], the inhibition at 1 µM came out at 24%. In addition, half-maximal inhibition on Tubulin (IC50) required 1000 nM.
As usually defined, the melting point is the temperature of the solid-liquid transition. Take `CON=Cc1n[nH]c2c1C=CC(c1ccccc1)(c1ccccc1)C2` (mixture of isomers) [Example 6-4, 6,6-diphenyl-6,7-dihydro-1H-indazole-3-carbaldehyde O-methyloxime]: the melting point was found to be 184 °C. This compound registered an IC50 against Tubulin of 6000 nM.
`ON=C(c1n[nH]c2c1C=CC(c1ccccc1)(c1ccccc1)C2)C1CCC1` [Example 6-2A, cyclobutyl(6,6-diphenyl-6,7-dihydro-1H-indazol-3-yl)methanone oxime]: the inhibition at 1 µM in data set [1] came to 18%. This compound had a concentration for half-maximal inhibition (IC50) at Tubulin of 1000 nM.
The matching figures for `ON=C(c1n[nH]c2c1C=CC(c1ccccc1)(c1ccccc1)C2)C1CC1` (single isomer, unassigned) [Example 6-1A, cyclopropyl(6,6-diphenyl-6,7-dihydro-1H-indazol-3-yl)methanone oxime]: 34% and 600 nM.
Regarding `ON=C(c1n[nH]c2c1C=CC(c1ccccc1)(c1ccc(F)cc1)C2)C1CC1` (single isomer, unassigned) [Example 10-5A], at 1 µM the inhibition in data set [1] was 25%. The compound further returned an IC50 against Tubulin of 1000 nM.
In turn, `O=C(c1n[nH]c2c1C=CC(c1ccccc1)(c1ccccc1)C2)N1CCC1` [Example 3-2, Azetidin-1-yl(6,6-diphenyl-6,7-dihydro-1H-indazol-3-yl)methanone] returned a melting point of 285 °C. Moreover, 4500 nM corresponded to half-maximal inhibition against Tubulin (IC50).
`C=CC(=O)n1nc(N)c2c1CC(c1ccccc1)(c1ccccc1)C=C2` [Example 7-2, 1-(3-Amino-6,6-diphenyl-6,7-dihydroindazol-1-yl)propenone] returned an inhibition at 1 µM in data set [1] of 25%. Further, the half-inhibitory concentration (IC50) against Tubulin came out at 5000 nM.
For `CCOC(=O)c1n[nH]c2c1C=CC(c1ccccc1)(c1ccc(F)cc1)C2` (racemic) [Example 10-3A, ethyl (R,S)-6-(4-fluorophenyl)-6-phenyl-6,7-dihydro-1H-indazole-3-carboxylate] the same measures were 16% and 1200 nM.
`C=CCO/N=C(\c1n[nH]c2c1C=CC(c1ccccc1)(c1ccccc1)C2)C1CC1` [Example 6-6A, cyclopropyl(6,6-diphenyl-6,7-dihydro-1H-indazol-3-yl)methanone O-allyloxime]: the inhibition at 1 µM in data set [1] came out at 17%. This compound showed a half-maximal inhibitory concentration (IC50) on Tubulin of 1000 nM.
The matching figures for `Cc1noc(-c2n[nH]c3c2C=CC(c2ccccc2)(c2ccccc2)C3)n1` [Example 8-1, 3-(3-Methyl[1,2,4]oxadiazol-5-yl)-6,6-diphenyl-6,7-dihydro-1H-indazole]: 24% and 9000 nM.
Take `CCOC(=O)c1[nH]nc2c1C=CC(c1ccccc1)(c1ccccc1)C2` [Example 1, Ethyl 6,6-diphenyl-6,7-dihydro-2H-indazole-3-carboxylate]: the inhibition at 1 µM in data set [1] amounted to 20%. The compound further gave a half-inhibitory concentration (IC50) on Tubulin of 1500 nM.
On to `CON=C(c1[nH]nc2c1C=CC(c1ccccc1)(c1ccccc1)C2)C1CC1` [Example 6-3A, cyclopropyl(6,6-diphenyl-6,7-dihydro-2H-indazol-3-yl)methanone O-methyloxime], for which the inhibition at 1 µM in data set [1] worked out at 26%. The compound further had a concentration for half-maximal inhibition (IC50) at Tubulin of 800 nM.
With “(R,S)-cyclopropyl[6-(4-fluorophenyl)-6-phenyl-6,7-dihydro-1H-indazol-3-yl]methanone [Example 10-4A]”, the “% detachment 1 μM” value in data set [1] is given as 33%. The IC50 at Tubulin was determined as 1000 nM.
Take `O=C(NC1CC1)c1n[nH]c2c1C=CC(c1ccccc1)(c1ccccc1)C2` [Example 3-1, N-(cyclopropyl)-6,6-diphenyl-6,7-dihydro-1H-indazole-3-carboxamide]: the inhibition at 1 µM in data set [1] turned out to be 20%. Also, it took 2500 nM to reach half-maximal inhibition on Tubulin (IC50).
For `CCOC(=O)c1n[nH]c2c1C=CC(c1ccccc1)(c1ccc(F)cc1)C2` (single isomer, unassigned) [Example 10-3B, ethyl 6-(4-fluorophenyl)-6-phenyl-6,7-dihydro-1H-indazole-3-carboxylate] the same measures were 19% and 1000 nM.
